# Results from patent US6982142B2, “Methods for screening therapeutically effective agents” (John Wayne Cancer Institute, priority 1997, dated 2006).
# Structures can show the parent of a compound that is named as a salt.
# Columns and labels:
# [1] = tested on: MCF-7-AdrR cells; assay: Cell radiolabeling and TLC/LSC analysis of ceramide, glucosylceramide and sphingomyelin in MDR breast cancer cells; assay type: cell-based, human; conditions: for ceramide level, increase over control: adriamycin 2.5, PSC 833 5.0 μM, tamoxifen 5.0 μM alone or combined, 24 h, [3H]palmitic acid
# Procedure: (§1) Cells. Experiments were conducted using the human MDR breast cancer cell line, MCF-7 AdrR (adriamycin resistant) provided by Drs. Kenneth H. Cowan and Merrill E. Goldsmith, National Cancer Institute. Cells were grown in RPMI-1640 medium containing 10% FBS (fetal bovine serum) and antibiotics as previously described (Lavie, 1997) and cultures were maintained in a humidified 6.5% CO2 atmosphere incubator. Trypsin (0.05%) and EDTA (0.5 mM) were used for subculture. Plastic tissue cultureware, was from Costar (96-well plates) and Corning (6-well plates, 6-cm dishes, T-75 flasks). Limited experiments were conducted using the human MDR epidermoid carcinoma cell line, KBV-1, provided by Dr. Michael M. Gottesman, National Cancer Institute. Cells were maintained as described (Lavie, 1996). Vinblastine was eliminated from the culture medium during the experiments.
# Cell Radiolabeling and Lipid/Glycolipid Analysis. To follow lipid metabolism, cells were grown in the presence of tritiated ceramide precursors, L-[^3H]serine (20 Ci/mmol) (American Radiolabeled Chemicals, Inc., St. Louis), and [9, 10-^3H]palmitic acid (50 Ci/mmol) (DuPont NEN). Labeling media were prepared by adding microliter amounts of tritiated compounds (supplied in ethanol or sterile water) to medium containing only 5% FBS. After radiolabeling, 0.1 ml aliquots of medium were removed and analyzed by LSC (Lavie, 1997), in order to determine cellular uptake of the tritiated compounds. Cell monolayers were then rinsed twice with cold phosphate-buffered saline. Ice cold methanol containing 2% acetic acid was added, and cells were scraped free of the substratum (plastic scraper) for lipid extraction using chloroform and water in 1-dram glass vials as described (Lavie, 1997; Lavie, 1996; Bligh and Dyer, 1959). After centrifugation, the resulting organic lower phase of the biphasic extraction was withdrawn, transferred to a glass vial, and evaporated to dryness under a stream of nitrogen.
# Radioactivity in glucosylceramide was analyzed by TLC resolution of total lipids (Silica Gel G) using a solvent system containing chloroform/methanol/ammonium hydroxide (80:20:2, v/v/v). Migration of glucosylceramide on TLC was compared with that of commercial standard (glucocerebrosides, Gaucher's spleen, Matreya, Inc., Pleasant Gap, Pa.), and lipid spots, after iodine vapor visualization, were scraped for tritium quantitation by LSC (Lavie, 1997; Lavie, 1996). […] Ceramide and sphingomyelin commercial standards (brain-derived) were from Avanti Polar Lipids, Alabaster, Ala. After iodine visualization of lipids, areas of the chromatogram corresponding to ceramide and sphingomyelin were scraped into minivials containing 0.5 ml water followed by 4.5 ml EcoLume (ICN, Costa Mesa, Calif.), and samples were analyzed for tritium by liquid scintillation spectrometry. Alternative analysis of ceramide consisted of subjecting an aliquot of the total cell lipid extract to mild alkaline hydrolysis (0.1 N KOH in methanol, 1 h at 37° C.) followed by re-extraction (Lavie, 1997). […] The same can also be done without tritium by simply applying 100-200 μg total cell lipid to TLC plates and developing them in the appropriate solvent, then spraying them with 30% H2SO4, charring the plate in an oven at 180° C. for 20 min, and measuring lipid mass by densitometry.
# [2] = tested on: MCF-7 wild-type cells; assay: Ceramide and sphingomyelin formation ([3H]palmitic acid, TLC) in wild-type breast cancer cells; assay type: cell-based, human; conditions: doxorubicin 1.7 μM
# Procedure: (§2) The effect of anthracyclines such as doxorubicin on ceramide formation is illustrated in FIG. 10A. Cells were seeded in 6-well plates (80,000 cells/well) in 2.0 ml medium containing 5% FBS. After 2 days of growth, cells were given doxorubicin (1.7 μM) and [^3H]palmitic acid (2.0 μCi/well) for 72 hr. Total cell lipids were extracted (Bligh and Dyer, 1959) and analyzed by applying 150,000 cpm (for ceramide analysis) and 50,000 cpm (for sphingomyelin analysis) from each sample to the origin of a Silica Gel G TLC plate and resolving [^3H]ceramide and [^3H]sphingomyelin as described in the Methods section. […] FIG. 10A illustrates that exposure of wild-type human breast cancer cells to doxorubicin (1.7 μM) caused, after 72 hours, a 6-fold increase in ceramide. […] Control and doxorubicin treated (1.7 μM) cells were grown in 10 cm culture dishes for 72 hr. Cells were harvested by trypsin-EDTA, centrifuged then incubated with digestion buffer (100 mM NaCl, 25 mM EDTA, 10 mM Tris-HCI, 0.5% SDS, 0.3 mg/ml Proteinase K, pH 8.0) at 45° C. for 18 hrs. DNA was extracted with phenol/chloroform/isoamyl alcohol (25:24:1, v/v/v) and precipitated in 1/3 volume 7.5 M ammonium acetate and 2 volume2 100% ethanol at −20° C. overnight. […] Re-extracted DNA (15 μg) was analyzed by electrophoresis on a 2% agarose gel in TAE buffer (40 mM Tris-acetate, 1.0 mM EDTA, pH 8.3). […]
# [3] = tested on: MCF-7 wild-type cells; assay: Apoptosis by oligonucleosomal DNA fragmentation (gel electrophoresis) in wild-type cells; assay type: cell-based, human; conditions: doxorubicin 1.7 μM, 72 hr
# Procedure: as §2
# [4] = tested on: MCF-7 cells; assay: cells; assay type: cell-based; conditions: Homo sapiens, MCF7, 96 h, read-out: EC50 (cytotoxicity)
# Procedure: Cytotoxicity Assay. The assay was performed as previously described (Lavie, 1997). […] Cultures were incubated at 37° C. for 24 hr before addition of drug. Drugs were added in FBS-free medium (0.1 ml), and cells were cultured at 37° C. for the indicated periods. Drug cytotoxicity was determined using the Promega 96 Aqueous cell proliferation assay kit. Absorbance at 490 nm was recorded using an ELISA reader (Molecular Devices, San Diego, Calif.).
# Adriamycin was used to assess the influence of GCS transfection on cellular response to anthracyclines. After pretreatment with doxycycline for two days, MCF-7/GCS cells were incubated with increasing concentrations of adriamycin for four days. […] It was observed that MCF-7/GCS cells were resistant to ceramide toxicity as well. […] However, the EC50 in the TC group was nearly identical with that of MCF-7 cells, there being no statistical difference between the two groups (FIG. 14C).
# [5] = tested on: MCF-7 cells; assay: Analysis of ceramide and glucosylceramide ([3H]palmitic acid, TLC) in parental cells; assay type: cell-based, human; conditions: adriamycin
# Procedure: (§3) Analysis of Ceramide and Glucosylceramide. Analyses were performed as previously described (Lavie, 1997). Cellular lipids were radiolabeled by incubating cells with [^3H]palmitic acid (2.5 μCi/ml culture medium) for 24 hr. After removal of medium, cells were rinsed twice with PBS (pH 7.4), and lipids were extracted (Lavie, 1997). After nitrogen evaporation of solvents, total lipids were resuspended in 100 μl of chloroform /methanol (1:1, v/v), and aliquots were applied to TLC plates. Ceramide was resolved using solvent system I, which contained chloroform/acetic acid (90:10, v/v). […] Commercial lipid standards were co-chromatographed. After development, lipids were visualized by iodine vapor staining, and areas of interest were scraped into 0.5 ml water. EcoLume counting fluid (4.5 ml) was added, the samples were mixed, and radioactivity was quantitated by liquid scintillation spectrometry.
# (§4) To further define the mechanism of drug resistance in MCF-7/GCS cells, cells were challenged with adriamycin and the metabolism of ceramide was evaluated (FIGS. 16A-16B). […] After 24 and 48 hr with adriamycin, GC levels in the GCS-transfected cells increased 1.4- and 2.1-fold, respectively.
# [6] = tested on: MCF-7/GCS cells; assay: Analysis of ceramide and glucosylceramide ([3H]palmitic acid, TLC) in GCS-transfected cells; assay type: cell-based, human; conditions: adriamycin
# Procedure: as §3, §4
# [7] = tested on: MCF-7-AdrR cells
# [8] = tested on: MCF-7-AdrR cells; assay: cells; conditions: Homo sapiens, 72 h, read-out: growth inhibition
# [9] = tested on: MCF-7-wt cells; assay: Cytotoxicity assay (Promega) in chemosensitive wild-type breast cancer cells; assay type: cell-based, human; conditions: PSC 833 10 μM, four days
# [10] = tested on: KB-V-1 cells; assay: Ceramide and sphingomyelin metabolism ([3H]palmitic acid labeling) in vinblastine resistant epidermoid carcinoma cells; assay type: cell-based, human; conditions: PSC 833 5.0 μM
# Procedure: as §1
# Cell Radiolabeling and Lipid/Glycolipid Analysis. To follow lipid metabolism, cells were grown in the presence of tritiated ceramide precursors, L-[^3H]serine (20 Ci/mmol) (American Radiolabeled Chemicals, Inc., St. Louis), and [9, 10-^3H]palmitic acid (50 Ci/mmol) (DuPont NEN). […] After radiolabeling, 0.1 ml aliquots of medium were removed and analyzed by LSC (Lavie, 1997), in order to determine cellular uptake of the tritiated compounds. […]
# Radioactivity in glucosylceramide was analyzed by TLC resolution of total lipids (Silica Gel G) using a solvent system containing chloroform/methanol/ammonium hydroxide (80:20:2, v/v/v). Migration of glucosylceramide on TLC was compared with that of commercial standard (glucocerebrosides, Gaucher's spleen, Matreya, Inc., Pleasant Gap, Pa.), and lipid spots, after iodine vapor visualization, were scraped for tritium quantitation by LSC (Lavie, 1997; Lavie, 1996). […] After iodine visualization of lipids, areas of the chromatogram corresponding to ceramide and sphingomyelin were scraped into minivials containing 0.5 ml water followed by 4.5 ml EcoLume (ICN, Costa Mesa, Calif.), and samples were analyzed for tritium by liquid scintillation spectrometry. […]
# [11] = tested on: KB-V-1 cells; assay: Cytotoxicity in vinblastine resistant epidermoid carcinoma cells (estimated, not measured); assay type: cell-based, human; conditions: PSC 833 5.0 μM, 24 h
# Procedure: To determine whether the influence of PSC 833 on ceramide metabolism was restricted to certain cell types, a vinblastine resistant epidermoid carcinoma, KB-V-1, was tested. In KB-V-1 cells exposed to 5.0 μM PSC 833 for 24 h, cellular levels of tritiated ceramide ([^3H]palmitic acid labeling) increased 8.7-fold over untreated cells. This is 4-fold higher than the ceramide increase elicited by PSC 833 in MCF-7-AdrR cells (FIG. 7). The increase in ceramide in KB-V-1 cells was accompanied by cytotoxicity, which while not measured was estimated at 80% cell death. Additionally, the PSC 833-induced increase in [^3H]ceramide was not accompanied by decreases in [^3H]sphingomyelin, but rather a slight increase in radiolabeled sphingomyelin (33% over the control).
# [12] = increasing concentration, 60 min then [3H]palmitic acid for 23 h
smiles,measurement,setting,value
"COc1cccc2c1C(=O)c1c(O)c3c(c(O)c1C2=O)C[C@@](O)(C(=O)CO)C[C@@H]3O[C@H]1C[C@H](N)[C@H](O)[C@H](C)O1 [adriamycin, doxorubicin hydrochloride]","ceramide level, increase over control",[1],not influenced
same,ceramide increase,[2]; 72 hours,6 fold
same,sphingomyelin production,[2]; 72 hr,increased only slightly
same,apoptosis (DNA laddering),[3],gave rise to apoptosis
same,EC50,[4],370 ± 10 nM
same,GC levels,[5]; 24 and 48 hr,little impact
same,ceramide level increase,[5]; 24 hr,3.4 fold
same,ceramide level increase,[5]; 48 hr,3 fold
same,GC level increase,[6]; 24 hr,1.4 fold
same,ceramide level increase,[6]; 24 hr,1.4 fold
same,GC level increase,[6]; 48 hr,2.1 fold
same,ceramide level increase,[6]; 48 hr,1.2 fold
same,cell survival,"[7]; adriamycin 0.2 μM alone, 5-days",90%
same,"cell survival, % of control","[7]; adriamycin 0.1-1.0 μM, 5-days",80-95 % of control
same,inhibition at 2.5 µM,[8],23%
"C/C=C/C[C@@H](C)C(=O)[C@H]1C(=O)N[C@@H](C(C)C)C(=O)N(C)CC(=O)N(C)[C@@H](CC(C)C)C(=O)N[C@@H](C(C)C)C(=O)N(C)[C@@H](CC(C)C)C(=O)N[C@@H](C)C(=O)N[C@H](C)C(=O)N(C)[C@@H](CC(C)C)C(=O)N(C)[C@@H](CC(C)C)C(=O)N(C)[C@@H](C(C)C)C(=O)N1C [PSC 833, ([3′-Keto-Bmt1]-Val2)-cyclosporine]",concentration at which activation of glucosylceramide formation was apparent,[1]; 60 min then [3H]palmitic acid for 23 h,0.1 µM
same,glucosylceramide level (TLC autoradiography),"[1]; PSC 833 2.5 μM, overnight, [3H]serine",increased markedly
same,"sphingomyelin, % of control","[1]; PSC 833 5.0 μM, 2 h",150 % of control
same,time at which activation of cellular ceramide formation was discernible,"[1]; PSC 833 5.0 μM, exposure 15 min-4 h",30 min
same,"ceramide level, increase over control",[1],4.8 fold
same,"cellular ceramide formation, dose-response",[1]; [12],elicited an increase in cellular ceramide formation
same,"glucosylceramide formation, dose-response",[1]; [12],resulted in glucosylceramide synthesis
same,reduction in cell survival,[9],80%
same,ceramide increase in KB-V-1 relative to increase in MCF-7-AdrR cells,[10],4 fold
same,"radiolabeled sphingomyelin, increase over the control",[10]; 24 h,33%
same,"tritiated ceramide level, increase over untreated cells",[10]; 24 h,8.7 fold
same,"cell death (not measured, estimated)",[11],~80%
same,cell kill,"[7]; PSC 833 0.5 μM, 5-days",10%
same,reduction in cell survival,"[7]; PSC 833 10 μM, four days",35%
same,cell viability,"[7]; adriamycin 2.5 μM, PSC 833 5.0, tamoxifen 5.0 μM alone or combined, 3-days",without influence
